Experimental data from patent US8178579B2, “Dioxanes and uses thereof” (President and Fellows of Harvard College, priority 2001, dated 2012).
“Also recorded” adds a separate entry of the source.

Key:
Assay type in all cases: biochemical
[1] = molecular target: T1, HDAC6 (Homo sapiens, UniProt Q9UBN7); assay: HDAC assay, [3H]acetate-incorporated histones with immunoprecipitated FLAG-tagged HDAC6 (HDAC6F); set-up: made in house; host or cells: TAg Jurkat cells, transient transfection, anti-FLAG M2 immunoprecipitation; details: [3H]-labeled histones, n=3
T1 sequence (Q9UBN7 1-1215): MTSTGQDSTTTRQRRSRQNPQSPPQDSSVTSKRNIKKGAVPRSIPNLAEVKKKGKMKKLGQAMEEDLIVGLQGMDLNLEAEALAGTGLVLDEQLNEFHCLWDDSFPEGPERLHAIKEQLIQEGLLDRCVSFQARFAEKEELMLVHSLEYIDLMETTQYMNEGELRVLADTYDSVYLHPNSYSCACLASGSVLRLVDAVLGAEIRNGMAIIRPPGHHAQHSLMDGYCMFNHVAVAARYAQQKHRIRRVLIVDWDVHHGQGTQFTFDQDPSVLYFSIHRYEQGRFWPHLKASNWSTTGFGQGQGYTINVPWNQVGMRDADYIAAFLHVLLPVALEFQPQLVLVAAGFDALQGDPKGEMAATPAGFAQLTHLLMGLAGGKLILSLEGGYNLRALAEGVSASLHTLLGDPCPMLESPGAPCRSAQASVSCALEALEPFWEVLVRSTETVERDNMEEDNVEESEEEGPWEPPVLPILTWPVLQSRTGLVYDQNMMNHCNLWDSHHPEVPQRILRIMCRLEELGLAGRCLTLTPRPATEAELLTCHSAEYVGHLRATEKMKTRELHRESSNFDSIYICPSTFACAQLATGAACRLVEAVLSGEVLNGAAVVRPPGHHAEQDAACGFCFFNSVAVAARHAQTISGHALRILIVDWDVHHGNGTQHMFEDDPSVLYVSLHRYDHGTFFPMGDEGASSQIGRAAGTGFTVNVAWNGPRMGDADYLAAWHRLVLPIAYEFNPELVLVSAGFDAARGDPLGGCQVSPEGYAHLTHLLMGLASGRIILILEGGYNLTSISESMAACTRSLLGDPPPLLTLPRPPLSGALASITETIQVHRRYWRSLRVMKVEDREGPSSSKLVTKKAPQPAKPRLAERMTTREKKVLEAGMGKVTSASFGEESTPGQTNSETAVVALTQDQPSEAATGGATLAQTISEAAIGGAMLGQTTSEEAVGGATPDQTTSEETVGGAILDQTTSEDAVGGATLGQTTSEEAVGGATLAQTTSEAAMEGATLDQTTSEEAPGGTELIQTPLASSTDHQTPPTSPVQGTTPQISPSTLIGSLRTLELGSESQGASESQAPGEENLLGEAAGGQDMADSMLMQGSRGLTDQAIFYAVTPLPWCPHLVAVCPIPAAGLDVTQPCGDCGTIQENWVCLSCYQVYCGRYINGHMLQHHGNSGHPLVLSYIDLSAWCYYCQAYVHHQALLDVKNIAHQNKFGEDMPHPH
Description: Cell culture and Transfections. TAg-Jurkat cells were transfected by electroporation with 5 μg of FLAG-epitope-tagged pBJ5 constructs (as described in ref. 5c) for expression of recombinant proteins. Cells were harvested 48 h posttransfection.
HDAC assays. […] Compounds were added in DMSO such that final assay concentrations were 1% DMSO. IC50s were calculated using Prism 3.0 software. Curve fitting was done without constraints using the program's Sigmoidal-Dose Response parameters. All data points were acquired in duplicate and IC50s are calculated from the composite results of at least two separate experiments.
(§1) Tubulin and MAPs were isolated from bovine brain as described [See http://mitchison.med.harvard.edu/protocols/tubprep.html]. Whole brain and fractions from phosphocellulose chromatography were blotted for HDAC6 and acetylated α-tubulin. Cultured hippocampal neurons from dissociated 1-day old rat brains were transfected with an enhanced green fluorescent protein (EGFP)-actin construct at 4-5 days using the calcium phosphate method [E. N. Star, D. J. Kwiatkowski and V. N. Murthy, Nat. Neurosci. […] K. Miranti and M. E. Greenberg, J. Neurosci. […] Transfected cultures were allowed to grow for at least 48 h before the addition of experimental compounds.
(§2) [^3H]Acetate-incorporated histones were isolated from butyrate-treated HeLa cells as described [J. Taunton, C. […] Immunoprecipitates were incubated with acetylated histones and HDAC activity determined by scintillation counting as described [J. Taunton, C. […] TDAC assays were performed with immunoprecipitates using MAP-stabilized microtubules polymerized from MAP-rich tubulin fraction as described [C. […] Reactions were incubated (2 h) at 37° C., then incubated on ice (15 min).

[2] = molecular target: T2, HDAC6F (Homo sapiens, UniProt Q9UBN7); assay: in vitro tubulin deacetylase (TDAC) assay, immunoprecipitated wild-type HDAC6F, MAP-stabilized tubulin; details: TSA 300 nM or 1 μM; tubacin, niltubacin, trapoxin B 1 μM
T2 construct: made in house; host or cells: TAg Jurkat cells, transient transfection, anti-FLAG M2 immunoprecipitation
T2 sequence (Q9UBN7 1-1215): T1 sequence (Q9UBN7 1-1215)
From the text: as §1, §2

[3] = molecular target: T1, HDAC6; assay: in vitro enzyme inhibition assay (Fluor de Lys deacetylation) of HDAC1, 4 and 6; set-up: endogenous in cells; host or cells: A549 cells; details: in vitro enzyme inhibition (FIG. 13)

## CC(/C=C/C(=O)NO)=C\[C@@H](C)C(=O)c1ccc(N(C)C)cc1 [TSA, trichostatin A, reference compound]
[1]
  inhibition of HDAC activity of wild-type HDAC6F: only partial inhibited by TSA or tubacin
[2]
  inhibition of TDAC activity of wild-type HDAC6F: inhibited by TSA (300 nM) or tubacin (1 μM); also recorded: inhibited α-tubulin deacetylation

## O=C(CCCCCCC(=O)Nc1ccc([C@@H]2OC(c3ccc(CO)cc3)C[C@H](CSc3nc(-c4ccccc4)c(-c4ccccc4)o3)O2)cc1)NO (some centres unmarked) [tubacin]
[3]
  selectivity for HDAC6 over HDAC1 and HDAC4: 3 fold
[1]
  inhibition of HDAC activity of wild-type HDAC6F: only partial inhibited by TSA or tubacin
[2]
  inhibition of TDAC activity of wild-type HDAC6F: inhibited by TSA (300 nM) or tubacin (1 μM); also recorded: inhibited α-tubulin deacetylation
